Measurements reported in patent US7851501B2, “Aromatic nitrocatechol compounds and their use for modulating processes mediated by cell adhesion molecules” (Revotar Biopharmaceuticals AG, priority 2005, dated 2010).

What was measured:
[1] = biological target: human L-Selectin-IgG-chimera (Homo sapiens, UniProt P14151); test: Sialyl Lewis x Tyrosine Sulfate Assay (sLex TSA), L-selectin; conditions: inhibition of binding of sLex-tyrosine sulfate polyacrylamide ligand complex
Description: (§1) Compounds of the present invention are assayed on a molecular level for their ability to inhibit the binding of P-, L-, or E-selectin chimeric molecules to sLe^x and tyrosinesulfate residues linked to a polymeric matrix as a PSGL-1 substitute. Selected IC50-values are determined.
(§2) Microtiter plates are coated overnight in carbonate buffer pH9.6 with goat anti human Fc mAB (10 μg/ml). After washing in assay buffer (25 mM 4-(2-hydroxyethyl)-1-piperazineethanesulfonic acid (HEPES), 150 mM NaCl, 1 mM CaCl2 pH7.4) and blocking (3% bovine serum albumin (BSA) in assay buffer) plates are incubated for 2 h at 37° C. with human P-Selectin-IgG-chimera (0.61 nM respectively 150 ng/mL) or human L-Selectin-IgG-chimera (0.61 nM respectively 89 ng/mL) or human E-Selectin-IgG-chimera (0.61 nM respectively 131 ng/mL). 5 μl of sLe^x-tyrosine sulfate polyacrylamide (1 mg/ml) carrying 15% sLe^x, 10% Tyrosine-sulfate and 5% biotin is complexed with […] Streptavidin-Peroxidase solution (1 mg/ml) and 25 μl assay buffer without CaCl2. For use in the assay, the ligand complex is diluted 1:10000 in assay buffer and further diluted 1:1 with varying amounts of compounds in assay buffer incl. 2% DMSO. This mixture is added to the wells precoated with E- or P-selectin. After incubation for 2 h at 37° C., wells are washed for six times with in assay buffer incl. 0.005% Polyoxyethylenesorbitan monolaurate (TWEEN 20), developed for 10-15 min with 20 μl 3,3′,5,5′-tetramethylbenzidine (TMB)/H2O2 substrate solution and stopped with 20 μl 1M H2SO4. Bound sLe^x-Tyrosine sulfate ligand complex is determined by measuring optical density at 450 nm vs. 620 nm in a Fusion alpha-FP reader (sold from Packard Bioscience, Dreieich, Germany).

[2] = biological target: T1, human P-Selectin-IgG-chimera (Homo sapiens, UniProt P16109); test: Sialyl Lewis x Tyrosine Sulfate Assay (sLex TSA), P-selectin; conditions: inhibition of binding of sLex-tyrosine sulfate polyacrylamide ligand complex
T1 sequence (P16109 with tags, fused parts or gaps limits assumed): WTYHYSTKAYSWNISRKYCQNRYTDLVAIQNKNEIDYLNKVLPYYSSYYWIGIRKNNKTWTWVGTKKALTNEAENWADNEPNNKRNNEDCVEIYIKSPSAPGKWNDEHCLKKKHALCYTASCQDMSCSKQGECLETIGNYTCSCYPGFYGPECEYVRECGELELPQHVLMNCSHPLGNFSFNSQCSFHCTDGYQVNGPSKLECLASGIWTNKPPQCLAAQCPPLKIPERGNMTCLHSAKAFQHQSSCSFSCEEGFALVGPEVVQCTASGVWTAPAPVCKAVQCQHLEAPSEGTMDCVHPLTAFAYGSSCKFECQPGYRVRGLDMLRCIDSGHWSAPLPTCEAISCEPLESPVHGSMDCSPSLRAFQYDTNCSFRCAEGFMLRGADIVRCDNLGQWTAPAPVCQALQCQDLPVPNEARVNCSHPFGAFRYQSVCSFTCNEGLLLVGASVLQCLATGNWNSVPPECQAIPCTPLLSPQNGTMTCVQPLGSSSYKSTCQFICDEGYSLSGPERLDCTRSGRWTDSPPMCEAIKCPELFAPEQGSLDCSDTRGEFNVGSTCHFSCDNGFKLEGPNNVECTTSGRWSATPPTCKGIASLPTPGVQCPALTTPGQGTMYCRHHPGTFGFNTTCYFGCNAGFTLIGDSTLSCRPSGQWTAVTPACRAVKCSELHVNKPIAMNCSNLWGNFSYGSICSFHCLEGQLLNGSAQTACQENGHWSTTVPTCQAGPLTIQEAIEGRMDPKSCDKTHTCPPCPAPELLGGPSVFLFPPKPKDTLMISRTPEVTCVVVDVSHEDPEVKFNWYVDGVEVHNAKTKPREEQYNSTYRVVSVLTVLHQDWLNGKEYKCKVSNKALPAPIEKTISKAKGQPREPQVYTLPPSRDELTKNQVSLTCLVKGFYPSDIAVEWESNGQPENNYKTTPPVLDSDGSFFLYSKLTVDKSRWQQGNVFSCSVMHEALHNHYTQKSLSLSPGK
Description: as §1, §2

[3] = biological target: T2, human E-Selectin-IgG-chimera (Homo sapiens, UniProt P16581); test: Flow chamber assay, cell adhesion and rolling under flow conditions, E-selectin; type: cell-based; conditions: 125 μM compound; HL-60 cells; flow shear 1 dyne/cm^2; after 5 minutes continuous flow
T2 sequence (P16581 with tags, fused parts or gaps limits assumed): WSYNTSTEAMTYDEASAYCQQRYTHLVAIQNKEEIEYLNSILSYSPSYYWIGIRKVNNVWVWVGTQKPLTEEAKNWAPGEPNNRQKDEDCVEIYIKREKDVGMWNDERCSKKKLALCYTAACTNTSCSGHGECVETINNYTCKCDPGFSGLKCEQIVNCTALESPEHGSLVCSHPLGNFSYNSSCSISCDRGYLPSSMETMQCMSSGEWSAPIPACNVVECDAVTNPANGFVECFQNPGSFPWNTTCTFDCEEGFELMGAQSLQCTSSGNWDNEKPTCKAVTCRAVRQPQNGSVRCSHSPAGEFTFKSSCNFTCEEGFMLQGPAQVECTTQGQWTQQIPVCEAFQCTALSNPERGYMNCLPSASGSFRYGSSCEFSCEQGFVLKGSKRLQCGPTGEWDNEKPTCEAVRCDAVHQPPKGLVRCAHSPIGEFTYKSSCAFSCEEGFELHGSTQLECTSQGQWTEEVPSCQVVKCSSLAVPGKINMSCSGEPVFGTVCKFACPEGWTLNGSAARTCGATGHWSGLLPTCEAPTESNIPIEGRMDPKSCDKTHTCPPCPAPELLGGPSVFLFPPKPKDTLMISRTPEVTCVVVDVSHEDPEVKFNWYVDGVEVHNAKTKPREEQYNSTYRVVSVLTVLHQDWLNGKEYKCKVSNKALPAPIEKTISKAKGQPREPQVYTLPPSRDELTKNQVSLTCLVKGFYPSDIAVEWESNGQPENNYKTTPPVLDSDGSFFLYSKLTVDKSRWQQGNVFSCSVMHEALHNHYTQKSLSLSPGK
Description: (§3) Values are given as normalized ratios of %-inhibition of compound x divided by %-inhibition of bimosiamose.
(§4) Flow Chamber Assay/Cell Adhesion and Rolling Under Flow Conditions
(§5) To assess the capability of compounds to inhibit cell binding under dynamic conditions resembling the flow in a blood vessel, flow chamber assays addressing/testing binding of HL-60 cells/various cell lines to P-selectin, L-selectin and E-selectin chimeric molecules are performed.
(§6) Cell attachment under flow conditions are determined using a parallel flow chamber system. A 35 mm polystyrene culture dish is coated for 1 hour at room temperature with coating buffer (50 mM tris-(hydroxymethyl)aminomethane buffer (Tris), 150 mM NaCl, 2 mM CaCl2; pH 7.4) containing human E- or P-selectin-IgG chimera at concentrations of 2.5 μg/ml or 10 μg/ml, respectively. After removal of the coating solution non specific binding sites are blocked for an additional hour with 1% BSA in coating buffer at room temperature. After washing with assay buffer (“Roswell Park Memorial Institute 1640” (RPMI 1640)+10 mM HEPES) the dish is fitted into a parallel plate laminar flow chamber (sold from Glycotech, Rockville, Md.) and mounted on an inverted phase-contrast microscope (sold from Olympus, Hamburg, Germany) equipped with a CCD camera (JVC) that is connected to a PC. Employing a peristaltic pump (sold from Ismatec, Wertheim-Mondfeld, Germany) the re-circulating system is equilibrated with assay buffer containing 125 μM compound or vehicle control (DMSO). Cells (1 million/ml) are added to the chamber and allowed to distribute for 2 minutes at a high flow rate. The flow rate is then decreased resulting in a calculated flow shear of 1 dyne/cm^2. Video sequences of 10 low power fields are digitally recorded after 5 minutes continuous flow. The percentage of inhibition is calculated from the mean number of cells per field that attached to the coated dish surface in the presence versus absence of compound […].

[4] = biological target: T1, human P-Selectin-IgG-chimera; test: Flow chamber assay, cell adhesion and rolling under flow conditions, P-selectin; type: cell-based; conditions: 125 μM compound; HL-60 cells; flow shear 1 dyne/cm^2; after 5 minutes continuous flow
Description: as §3, §4, §5, §6

[5] = biological target: T2, human E-Selectin-IgG-chimera; test: Sialyl Lewis x Tyrosine Sulfate Assay (sLex TSA), E-selectin; conditions: inhibition of binding of sLex-tyrosine sulfate polyacrylamide ligand complex
Description: as §1
as §2, with “This mixture is added to the wells precoated with E- or P-selectin. After incubation for 2 h at 37° C., wells are washed for six times with in assay buffer incl. 0.005% Polyoxyethylenesorbitan monolaurate (TWEEN 20), developed for 10-15 min with 20 μl 3,3′,5,5′-tetramethylbenzidine (TMB)/H2O2 substrate solution and stopped with 20 μl 1M H2SO4.” left out

human L-Selectin-IgG-chimera, sequence (P14151 with tags, fused parts or gaps limits assumed): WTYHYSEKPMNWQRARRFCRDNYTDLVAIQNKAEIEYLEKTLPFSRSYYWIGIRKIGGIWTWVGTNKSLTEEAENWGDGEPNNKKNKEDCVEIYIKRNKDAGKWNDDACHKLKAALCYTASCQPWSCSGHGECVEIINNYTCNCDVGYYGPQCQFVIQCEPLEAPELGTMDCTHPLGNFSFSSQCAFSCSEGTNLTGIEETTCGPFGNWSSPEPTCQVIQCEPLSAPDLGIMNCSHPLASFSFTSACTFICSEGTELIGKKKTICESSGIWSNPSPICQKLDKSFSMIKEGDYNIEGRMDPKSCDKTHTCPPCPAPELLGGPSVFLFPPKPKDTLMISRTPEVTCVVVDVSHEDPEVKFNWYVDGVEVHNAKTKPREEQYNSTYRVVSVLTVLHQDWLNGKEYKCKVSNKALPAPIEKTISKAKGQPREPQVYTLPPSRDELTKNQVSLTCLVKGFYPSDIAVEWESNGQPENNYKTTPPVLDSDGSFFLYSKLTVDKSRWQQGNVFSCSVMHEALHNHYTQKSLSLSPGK

Row | IC50 [1] [µM] | IC50 [2] [µM] | E-Selectin normalized ratio of %-inhibition of compound divided by %-inhibition of bimosiamose [3] | P-Selectin normalized ratio of %-inhibition of compound divided by %-inhibition of bimosiamose [4] [Ratio] | IC50 [5] [µM] | SMILES
1 | 6.6 | 4.6 | 1.01 Ratio | 1.72 |  | O=C(Nc1ccccc1-c1ccc(C(=O)O)s1)c1cccc(-c2cc([N+](=O)[O-])cc(O)c2O)c1 [Compound 120, 5-{2-[(2′-3′-Dihydroxy-5′-nitro-biphenyl-3-carbonyl)-amino]-phenyl}-thiophene-2-carboxylic acid]
2 |  |  | 0.98 Ratio | 0.89 |  | O=C(O)Cc1ccc(-c2ccccc2NC(=O)Cc2cc(O)c(O)c([N+](=O)[O-])c2)s1 [Compound 121, (5-{2-[2-(3,4-Dihydroxy-5-nitro-phenyl)-acetylamino]-phenyl}-thiophen-2-yl)-acetic acid]
3 |  |  | 1.00 Ratio | 1.26 |  | O=C(O)Cc1ccc(-c2ccccc2NC(=O)Cc2cc(O)c(O)cc2[N+](=O)[O-])s1 [Compound 110, (5-{2-[2-(4,5-Dihydroxy-2-nitro-phenyl)-acetylamino]-phenyl}-thiophen-2-yl)-acetic acid]
4 | 39.2 | 19.2 | 0.84 Ratio | 1.19 |  | O=C(O)Cc1ccc(-c2ccccc2NC(=O)c2cccc(-c3cc(O)c(O)cc3[N+](=O)[O-])c2)s1 [Compound 118, (5-{2-[(4′,5′-Dihydroxy-2′-nitro-biphenyl-3-carbonyl)-amino]-phenyl}-thiophen-2-yl)-acetic acid]
5 |  |  | n.s. | 0.83 |  | O=C(Nc1ccccc1)c1cccc(-c2cc(O)c(O)cc2[N+](=O)[O-])c1 [Compound 117, 4′,5′-Dihydroxy-2′-nitro-biphenyl-3-carboxylic acid phenylamide]
6 |  |  | 1.37 Ratio | 1.30 |  | Cc1oc(-c2ccc(NC(=O)c3cccc(-c4cc(O)c(O)cc4[N+](=O)[O-])c3)cc2)cc1C(=O)O [Compound 113, 2-Methyl-5-{4-[(2′-nitro-4′,5′-dihydroxy-biphenyl-3-carbonyl)-amino]-phenyl}-furan-3-carboxylic acid]
7 | 17.1 | 11 | 0.86 Ratio | 1.67 | 272 | O=C(Nc1ccccc1-c1ccc(C(=O)O)s1)c1cccc(-c2cc(O)c(O)cc2[N+](=O)[O-])c1 [Compound 119, 5-{2-[(4′,5′-Dihydroxy-2′-nitro-biphenyl-3-carbonyl)-amino]-phenyl}-thiophene-2-carboxylic acid]
8 | 8.7 | 5.2 | 1.23 Ratio | 1.32 | 308 | O=C(O)Cc1ccc(-c2ccccc2NC(=O)c2cccc(-c3cc([N+](=O)[O-])cc(O)c3O)c2)s1 [Compound 116, (5-{2-[(2′,3′-Dihydroxy-5′-nitro-biphenyl-3-carbonyl)-amino]-phenyl}-thiophen-2-yl)-acetic acid]
